Experimental data taken from patent US10123995B2, “Factor XIa inhibitors” (MERCK SHARP & DOHME CORP., priority 2015, dated 2018).

Experiments:
[1] = biological target: purified human Factor XIa (Homo sapiens (Human), UniProt P03951); assay: Factor XIa Assay; assay type: biochemical; conditions: Factor XIa inhibition; substrate Z-Gly-Pro-Arg-AFC, pH 7.4; read-out: hFXIa IC50
Experimental: The effectiveness of a compound of the present invention as an inhibitor of Coagulation Factor XIa can be determined using a relevant purified serine protease, and an appropriate synthetic substrate. The rate of hydrolysis of the chromogenic or fluorogenic substrate by the relevant serine protease was measured both in the absence and presence of compounds of the present invention. Assays were conducted at room temperature or at 37° C. […] A decrease in the rate of fluorescence change in the presence of inhibitor is indicative of enzyme inhibition. Such methods are known to one skilled in the art. […]
Factor XIa determinations were made in 50 mM HEPES buffer at pH 7.4 containing 150 mM NaCl, 5 mM CaCl2, and 0.1% PEG 8000 (polyethylene glycol; JT Baker or Fisher Scientific). Determinations were made using purified human Factor XIa at a final concentration of 40 pM (Sekisui Diagnostics) and the synthetic substrate, Z-Gly-Pro-Arg-AFC, TFA salt (Sigma #C0980) at a concentration of 100 μM.
Activity assays were performed by diluting a stock solution of substrate at least tenfold to a final concentration ≤0.1 Km into a solution containing enzyme or enzyme equilibrated with inhibitor. Times required to achieve equilibration between enzyme and inhibitor were determined in control experiments. Initial velocities of product formation in the absence (Vo) or presence of inhibitor (Vi) were measured. Assuming competitive inhibition, and that unity is negligible compared Km/[S], [I]/e, and [I]/e (where [S], [I], and e respectively represent the total concentrations, of substrate, inhibitor and enzyme), the equilibrium constant (Ki) for dissociation of the inhibitor from the enzyme can be obtained from the dependence of Vo/Vi on [I] shown in the following equation. Vo/Vi=1+[I]/Ki

[2] = biological target: purified Human plasma kallikrein (Homo sapiens (Human), UniProt P03952); assay: Kallikrein Assay; assay type: biochemical; conditions: table titled Kalikrein inhibition (column head prints hFXIa), substrate Acetyl-K-P-R-AFC, pH 7.4
Experimental: The effectiveness of a compound of the present invention as an inhibitor of Kallikrein can be determined using a relevant purified serine protease, and an appropriate synthetic substrate. The rate of hydrolysis of the chromogenic or fluorogenic substrate by the relevant serine protease was measured both in the absence and presence of compounds of the present invention. Assays were conducted at room temperature or at 37° C. […] A decrease in the rate of fluorescence change in the presence of inhibitor is indicative of enzyme inhibition. Such methods are known to one skilled in the art. The results of this assay are expressed as the inhibitory constant, Ki.
Kallikrein determinations were made in 50 mM HEPES buffer at pH 7.4 containing 150 mM NaCl, 5 mM CaCl2, and 0.1% PEG 8000 (polyethylene glycol; Fisher Scientific). Determinations were made using purified Human plasma kallikrein at a final concentration of 0.5 nM (Enzyme Research Laboratories) and the synthetic substrate, Acetyl-K-P-R-AFC (Sigma # C6608) at a concentration of […].
Activity assays were performed by diluting a stock solution of substrate at least tenfold to a final concentration ≤0.2 Km into a solution containing enzyme or enzyme equilibrated with inhibitor. Times required to achieve equilibration between enzyme and inhibitor were determined in control experiments. The reactions were performed under linear progress curve conditions and fluorescence increase measured at 405 Ex/510 Em nm. Values were converted to percent inhibition of the control reaction (after subtracting 100% Inhibition value). IC50 was determined by inflection point from a four parameter logistic curve fit. Ki was calculated using the Cheng Prusoff equation, Ki=IC50/(1+([S]/Km)).

purified human Factor XIa, sequence (P03951 388-625): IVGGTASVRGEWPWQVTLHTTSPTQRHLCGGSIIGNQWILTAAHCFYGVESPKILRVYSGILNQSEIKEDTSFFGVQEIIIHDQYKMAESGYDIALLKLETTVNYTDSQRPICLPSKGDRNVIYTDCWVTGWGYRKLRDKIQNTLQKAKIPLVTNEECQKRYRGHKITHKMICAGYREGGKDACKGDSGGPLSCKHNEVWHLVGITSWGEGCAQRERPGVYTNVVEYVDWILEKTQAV
purified human Factor XIa, sequence (P03951 19-387 partner): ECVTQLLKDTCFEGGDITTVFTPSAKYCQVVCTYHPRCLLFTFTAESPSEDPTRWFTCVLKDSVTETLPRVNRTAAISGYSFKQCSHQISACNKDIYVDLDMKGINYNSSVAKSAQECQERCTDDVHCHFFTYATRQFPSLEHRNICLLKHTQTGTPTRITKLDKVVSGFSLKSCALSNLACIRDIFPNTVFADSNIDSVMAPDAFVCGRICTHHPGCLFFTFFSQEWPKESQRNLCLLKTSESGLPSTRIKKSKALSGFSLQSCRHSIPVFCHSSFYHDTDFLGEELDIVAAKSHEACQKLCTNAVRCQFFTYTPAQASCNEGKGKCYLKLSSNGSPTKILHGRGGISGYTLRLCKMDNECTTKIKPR
purified Human plasma kallikrein, sequence (P03952 391-638): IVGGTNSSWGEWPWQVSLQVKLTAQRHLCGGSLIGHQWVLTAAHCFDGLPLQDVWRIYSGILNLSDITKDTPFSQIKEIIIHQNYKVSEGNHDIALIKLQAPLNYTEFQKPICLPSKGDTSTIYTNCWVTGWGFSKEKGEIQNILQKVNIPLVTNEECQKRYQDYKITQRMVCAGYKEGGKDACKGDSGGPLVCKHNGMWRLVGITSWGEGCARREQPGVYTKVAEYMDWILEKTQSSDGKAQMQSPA
purified Human plasma kallikrein, sequence (P03952 20-390 partner): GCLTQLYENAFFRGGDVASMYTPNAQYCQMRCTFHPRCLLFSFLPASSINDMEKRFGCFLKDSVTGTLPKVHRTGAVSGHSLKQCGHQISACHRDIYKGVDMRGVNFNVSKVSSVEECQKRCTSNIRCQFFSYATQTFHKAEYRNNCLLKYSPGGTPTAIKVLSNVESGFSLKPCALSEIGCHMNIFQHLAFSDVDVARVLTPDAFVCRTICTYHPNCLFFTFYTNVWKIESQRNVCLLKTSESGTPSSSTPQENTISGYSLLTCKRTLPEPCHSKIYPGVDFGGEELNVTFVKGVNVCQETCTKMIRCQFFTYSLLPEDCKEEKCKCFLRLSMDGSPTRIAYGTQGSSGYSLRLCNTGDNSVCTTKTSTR

## O=C(O)c1ccc(NC(=O)C2(O)CCc3cc(-c4cc(Cl)ccc4-n4cnnn4)c[n+]([O-])c32)cc1 (centres unmarked) [Example 19, 4-[({3-[5-Chloro-2-(1H-tetrazol-1-yl)phenyl]-7-hydroxy-1-oxido-6,7-dihydro-5H-cyclopenta[b]pyridin-7-yl}carbonyl)amino]benzoic acid]
[1]
  IC50: 6 nM
[2]
  IC50: 1370 nM
